Test results published in US20140295417A1, “IDENTIFICATION OF ANTIBIOTIC RESISTANCE” (priority 2011, published 2014).
Read-outs that look alike come from different tables or passages of the source. Where a SMILES comes first, the peptide text is derived from it. Bridges are numbered along the chain shown (N, C = ends). [ ]: non-standard residue; d: D form. The star is where a group is joined. NMePhe(4-NMe2) = CN[C@@H](Cc1ccc(N(C)C)cc1)C(=O)O; Pip(4-oxo) = O=C1CCN[C@H](C(=O)O)C1; Picolinoyl(3-OH) = O=C(c1ncccc1O)*; Phg = N[C@H](C(=O)O)c1ccccc1; dAbu = CC[C@@H](N)C(=O)O

Tests used:
[1] = system: 23S rRNA; conditions: cited from earlier work
[2] = system: HLAR, High level Aminoglycoside Resistance in Enterococci; assay: Binding of fluorescently labelled antibiotic, resistant vs non-resistant form (Table 3); type: cell-based; conditions: resistant relative to non-resistant form
Protocol: (§1) Table 3: Antibiotic resistance mechanism in clinically relevant micro-organisms and alteration in the amount of antibiotics in resistant micro-organisms. The alteration of the amount of detectable labelled antibiotics in micro-organisms in its resistant form is determined relative to its non-resistant form. The amount is expressed in % change of fluorescence (decrease and increase, respectively) of an antibiotic which carries a fluorescent label.

[3] = system: VRS, Vancomycin resistant Staph; assay: as above; type: cell-based, Staphylococci (CNS); conditions: increased binding; fluorescent-labelled antibiotic, resistant relative to non-resistant form
Protocol: as §1

[4] = system: VRE, Vancomycin resistant Enterococci; assay: as above; type: cell-based; conditions: resistant relative to non-resistant form
Protocol: as §1

[5] = system: VRE, Vancomycin resistant Enterococci; conditions: mechanism column; reduction of affinity in resistant form; cited from earlier work
[6] = system: VISA, Vancomycin intermediary SA; assay: Binding of fluorescently labelled antibiotic, resistant vs non-resistant form (Table 3); type: cell-based, Staphylococcus aureus; conditions: increased binding; fluorescent-labelled antibiotic, resistant relative to non-resistant form
Protocol: as §1

[7] = system: ESBL, Extended Spectrum β-Lactamase Stenotrophomonas maltophilla; assay: as above; type: cell-based; conditions: increase of binding; fluorescent-labelled antibiotic, resistant relative to non-resistant form
Protocol: as §1

[8] = system: ESBL, Extended Spectrum β-Lactamase Pseudomonas spp.; assay: as above; type: cell-based; conditions: increase of binding; fluorescent-labelled antibiotic, resistant relative to non-resistant form
Protocol: as §1

[9] = system: ESBL, Extended Spectrum β-Lactamase Acinetobacter; assay: as above; type: cell-based; conditions: increase of binding; fluorescent-labelled antibiotic, resistant relative to non-resistant form
Protocol: as §1

[10] = system: ESBL, Extended Spectrum β-Lactamase BCC; assay: as above; type: cell-based; conditions: increase of binding; fluorescent-labelled antibiotic, resistant relative to non-resistant form
Protocol: as §1

[11] = system: ESBL, Extended Spectrum β-Lactamase Enterobacteriaceae; assay: as above; type: cell-based; conditions: increase of binding; fluorescent-labelled antibiotic, resistant relative to non-resistant form
Protocol: as §1

[12] = system: CA-MRSA, Community acquired MRSA; type: cell-based, Staphylococcus aureus; conditions: resistant relative to non-resistant form
Protocol: as §1

[13] = system: ORSA, Oxacillin resistant SA; assay: Binding of fluorescently labelled antibiotic, resistant vs non-resistant form (Table 3); type: cell-based, Staphylococcus aureus; conditions: resistant relative to non-resistant form
Protocol: as §1

[14] = system: MRSA, Methicillin Resistant SA; assay: as above; type: cell-based, Staphylococcus aureus; conditions: resistant relative to non-resistant form
Protocol: as §1

[15] = system: BORSA, Border line oxacillin resistant SA; assay: as above; type: cell-based, Staphylococcus aureus; conditions: resistant relative to non-resistant form
Protocol: as §1

[16] = reduction of binding, fluorescent-labelled antibiotic

In the case of `[H]/N=C(/N)N[C@H]1[C@H](O)[C@@H](O)[C@H](O[C@@H]2O[C@@H](C)[C@](O)(C=O)[C@H]2O[C@@H]2O[C@@H](CO)[C@H](O)[C@@H](O)[C@@H]2NC)[C@@H](N/C(N)=N\[H])[C@@H]1O` [Streptomycin], the Phenotype ([1]; 23S rRNA position 2661, "G to C", E. coli, when expressed with Smr, hyperaccurate S12 mutation) is listed as “streptomycin dependent”, the “% Change in Fluorescenc” value [2, 16] is listed as >80% reduction and the “Effect of resistance on fluorescence” value [2] is listed as “Reduction in Streptomycin binding”.
In the case of `CN[C@H](CC(C)C)C(=O)N[C@H]1C(=O)N[C@@H](CC(N)=O)C(=O)N[C@H]2C(=O)N[C@H]3C(=O)N[C@H](C(=O)N[C@H](C(=O)O)c4cc(O)cc(O)c4-c4cc3ccc4O)[C@H](O)c3ccc(c(Cl)c3)Oc3cc2cc(c3O[C@@H]2O[C@H](CO)[C@@H](O)[C@H](O)[C@H]2O[C@H]2C[C@](C)(N)[C@H](O)[C@H](C)O2)Oc2ccc(cc2Cl)[C@H]1O` [Vancomycin], the “% Change in Fluorescenc” value [3] is reported as >50%, the “% Change in Fluorescenc” value [4, 16] is reported as >80% and the “Effect of resistance on fluorescence” value [4] is reported as “Reduction of vancomycin”. For the same compound, the “Reduced affinity to Van” value [5] was “Reduced affinity to Van by 3 orders of magnitude” and the “% Change in Fluorescenc” value [6] was 20-50%.
For `O=C(O)[C@H]1/C(=C/CO)O[C@@H]2CC(=O)N21` [clavulanic acid], the “% Change in Fluorescenc” value [7] was >80%, the “% Change in Fluorescenc” value [8] was >80% and the “% Change in Fluorescenc” value [9] was >80%. For the same compound, the “% Change in Fluorescenc” value [10] was >80% and the “% Change in Fluorescenc” value [11] was >80%.
For `CC[C@H]1NC(=O)[C@@H](NC(=O)c2ncccc2O)[C@@H](C)OC(=O)[C@H](c2ccccc2)NC(=O)[C@@H]2CC(=O)CCN2C(=O)[C@H](Cc2ccc(N(C)C)cc2)N(C)C(=O)[C@@H]2CCCN2C1=O` [pristinamycin 1A] ({Picolinoyl(3-OH)}-T[dAbu]P[NMePhe(4-NMe2)][Pip(4-oxo)][Phg]; ester 1-C), the “Phenotype (binding on peptidyl transferase loop)” value ([1]; 23S rRNA position 2500, U2500A/C2501A, E. coli) is listed as “Inhibits binding of 1A” and the “Phenotype (binding on peptidyl transferase loop)” value ([1]; 23S rRNA position 2602, A2602C/C2501A, E. coli) is listed as “Inhibits binding of 1A”.
In the case of `CSC[S@+]([O-])C[C@H](CO)NC(=O)/C=C/c1c(C)[nH]c(=O)[nH]c1=O` [sparsomycin], the “Phenotype (resistance)” value ([1]; 23S rRNA position 2452 "C to U", Halobacterium halobium (Tan et al. 1996)) is given as “Low level sparsomycin”.
In the case of `C=C(NC(=O)C(=C)NC(=O)c1csc(C2=N[C@@H]3c4csc(n4)[C@H]4NC(=O)c5csc(n5)[C@H]([C@](C)(O)[C@@H](C)O)NC(=O)[C@H]5CSC(=N5)/C(=C/C)NC(=O)[C@H]([C@@H](C)O)NC(=O)c5csc(n5)[C@]3(CC2)NC(=O)[C@H](C)NC(=O)C(=C)NC(=O)[C@H](C)NC(=O)[C@H]([C@@H](C)CC)N[C@@H]2C=Cc3c([C@H](C)O)cc(nc3[C@H]2O)C(=O)O[C@@H]4C)n1)C(N)=O` [thiostrepton], the “Phenotype: binding of thiostrepton” value ([1]; 23S rRNA 1056 G to C, E. coli, RNA fragments) is listed as “weakened in RNA”, the “Phenotype: drug binding affinity” value ([1]; 23S rRNA 1067 A to C, E. coli) is listed as “affinity is reduced similarly” and the “Phenotype: level of resistance” value ([1]; 23S rRNA 1067 A to C, E. coli) is listed as “A to C or U confers high”. The “Phenotype: drug binding affinity” value ([1]; 23S rRNA 1067 A to G, E. coli) was “affinity is reduced similarly”, the “Phenotype: level of resistance” value ([1]; 23S rRNA 1067 A to G, E. coli) was “confers intermediate level” and the “Phenotype: drug binding affinity” value ([1]; 23S rRNA 1067 A to U, E. coli) was “affinity is reduced similarly”. For the same compound, the “Phenotype: level of resistance” value ([1]; 23S rRNA 1067 A to U, E. coli) was “A to C or U confers high” and the “Phenotype: thiostrepton resistance in poly (U) translation” value ([1]; 23S rRNA 1067 A to U, E. coli, mutant constituted 30% of the total 23S rRNA pool in the ribosomes) was “ribosomes; exhibited 30%”.
For `COc1cc(Cc2cnc(N)nc2N)cc(OC)c1OC` [trimethoprim], the “Effect of resistance on fluorescence” value [12] was “binding. Maintaims binding”.
For Penicillin [listing 1 of 2 here], the “% Change in Fluorescenc” value [12, 16] was “> to ≈80%”, the “% Change in Fluorescenc” value [13, 16] was “> to ≈80%” and the “% Change in Fluorescenc” value [14, 16] was “> to ≈80%”. For the same compound, the “Effect of resistance on fluorescence” value [14] was “Reduction of Penicillin binding” and the “% Change in Fluorescenc” value [15, 16] was “> to ≈80%”.
With Penicillin [listing 2 of 2 here] the “Effect of resistance on fluorescence” value [12] was “Reduction of Penecillin”, the “Effect of resistance on fluorescence” value [13] was “Reduction of Penecillin” and the “Effect of resistance on fluorescence” value [15] was “Reduction of Penecillin”.
In the case of spiramycin, the Phenotype ([1]; 23S rRNA position 2611, "C to G", Chlamydomonas reinhardtii (Gauthier et al. 1988)) is given as “spiramycin resistance” and the Phenotype ([1]; 23S rRNA position 2611, "C to G", Yeast mitochondria (Sor and Fukahara 1984)) is given as “spiramycin resistance”.
